Test results as given in patent US7705040B2, “Reagents for highly specific detection of peroxynitrite” (The University of Hong Kong, priority 2005, dated 2010).

How the values were obtained:
[1] = test system: primary cultured cortex neurons; assay: Cell assay: fluorescent microscopy of intracellular ONOO− production after SIN-1; format: cell-based, Sprague-Dawley rats; conditions: probe 20 μM for 15 mins, then 10 and 100 μM SIN-1 for 15 mins; fluorescent microscopy (FIG. 24)
Description: Throughout this study, primary cultured cortex neurons were prepared from embryonic day 15 Sprague-Dawley rats. Briefly, dissociated cell suspensions were plated at a density of 2×10^6 cells/well on poly-L-lysine-coated 6-well plates (BD Biosciences, San Diego, Calif., USA) with Neurobasal/2% B27 (Gibco-BRL, Grand Island, N.Y.) containing glutamine (0.5 mM, Sigma Chemical Company, St. Louis, Mo.), penicillin (100 U/mL) and streptomycin (100 μg/mL). The cells were maintained in a humidified incubator at 37° C., in 5% CO2-95% air. On the tenth day, cultured cortical cells were used for experimentation. The primary cultured neuronal cells were incubated with the ss-6 and ss-12 at the concentration of 20 μM for 15 mins and then washed with sodium phosphate buffer (100 mM, pH 7.4) for 3 times. After that, the cells were treated with 10 and 100 μM SIN-1 (3-Morpholino-sydnonimine-HCl) for 15 mins. After washed with sodium phosphate buffer (100 mM, pH 7.4), the cells were observed under fluorescent microscopy.

[2] = Specific detection of peroxynitrite: fluorescence versus ONOO− concentration; conditions: probe 20 μM, pH 7.4, after 30 mins
Description: Compound ss-6 obtained in Example 1 was dissolved in CH3CN to a concentration of 2 mM, and then the solution was added with a 100 mM sodium phosphate buffer (pH 7.4) for dissolution at a final concentration of 20 μM. Then peroxynitrite was added to final concentrations of 0, 20, 60, 100, 200, 240 and 300 μM, and the fluorescence spectrum was measured after 30 mins. The fluorescence spectrum was measured under the same conditions as those in Example 2.
Compound ss-12 obtained in Example 5 was dissolved in CH3CN to a concentration of 2 mM, and then the solution was added with a 100 mM sodium phosphate buffer (pH 7.4) for dissolution at a final concentration of 20 μM. Then peroxynitrite was added to final concentrations of 0, 20, 60, 100, 200, 240 and 300 μM, and the fluorescence spectrum was measured after 30 mins. The fluorescence spectrum was measured under the same conditions as those in Example 6.

[3] = Specificity of probe with different reactive oxygen species: fluorescence change with H2O2; conditions: ss-6 20 μM, phosphate buffer pH 7.4; 10 equiv
Description: (§1) Compound ss-6 obtained in Example 1 was dissolved in CH3CN to a concentration of 2 mM, and then the solution was added a 100 mM sodium phosphate buffer (pH 7.4) for dissolution to a final concentration of 20 μM. The excitation spectrum and the fluorescence spectrum of the 20 μM ss-6 solution were measured using a Perkin Elmer LS50 fluorescence spectrometer. Slit width was 5 nm for both the excitation spectrum and the fluorescence spectrum, and the photomultiplier voltage was 775 V. The measurement was carried out at the excitation wavelength of 515 nm.
(§2) Compound ss-6 obtained in Example 1 was dissolved in CH3CN to a concentration of 2 mM, and then the solution was added with a 100 mM sodium phosphate buffer (pH 7.4) for dissolution at a final concentration of 20 μM. […] The changes in fluorescence intensity before and after the treatment were measured. The fluorescence intensity was measured under the same conditions as those in Example 2. Each concentration of the fluorescence probe was 20 μM (a 100 mM sodium phosphate buffer, pH 7.4).
(§3) Compound ss-12 obtained in Example 5 was dissolved in CH3CN to a concentration of 2 mM, and then the solution was added with a 100 mM sodium phosphate buffer (pH 7.4) for dissolution at a final concentration of 20 μM. […] The changes in fluorescence intensity before and after the treatment were measured. […]

[4] = Specificity of probe with different reactive oxygen species: fluorescence change with superoxide; conditions: ss-6 20 μM, phosphate buffer pH 7.4; Xanthine Oxidase then Xanthine (50 μL, 20 mM)
Description: as §1, §2, §3

[5] = Specificity of probe with different reactive oxygen species: fluorescence change with ONOO−
Description: (§4) Compound ss-6 obtained in Example 1 was dissolved in CH3CN to a concentration of 2 mM, and then the solution was added a 100 mM sodium phosphate buffer (pH 7.4) for dissolution to a final concentration of 20 μM. The excitation spectrum and the fluorescence spectrum of the 20 μM ss-6 solution were measured using a Perkin Elmer LS50 fluorescence spectrometer. Slit width was 5 nm for both the excitation spectrum and the fluorescence spectrum, and the photomultiplier voltage was 775 V. The measurement was carried out at the excitation wavelength of 515 nm. […]
as §2, §3

[6] = Specificity of probe with different reactive oxygen species: fluorescence change with hydroxyl radical; conditions: ss-6 20 μM, phosphate buffer pH 7.4; Fe(ClO4)2 (25 μL, 40 mM) and H2O2 (25 μL, 80 mM)
Description: as §1
(§5) Compound ss-6 obtained in Example 1 was dissolved in CH3CN to a concentration of 2 mM, and then the solution was added with a 100 mM sodium phosphate buffer (pH 7.4) for dissolution at a final concentration of 20 μM. 50 μL of different reactive oxygen species (10 equiv) were added independently to 5 mL of the corresponding ss-6 solution. The changes in fluorescence intensity before and after the treatment were measured. The fluorescence intensity was measured under the same conditions as those in Example 2. Each concentration of the fluorescence probe was 20 μM (a 100 mM sodium phosphate buffer, pH 7.4).

[7] = Specificity of probe with different reactive oxygen species: fluorescence change with SIN-1; conditions: ss-6 20 μM, 100 mM sodium phosphate buffer pH 7.4; 10 equiv; SIN-1 generates ONOO− slowly in buffer
Description: as §1, §5

[8] = Specificity of probe with different reactive oxygen species: fluorescence change with singlet oxygen; conditions: ss-6 20 μM, phosphate buffer pH 7.4; 3-(1,4-dihydro-1,4-epidioxy-1-napthyl)propionic acid at 37° C. (50 μL, 20 mM)
Description: as §1, §2, §3

[9] = Fluorescence spectrum after reaction of probe with 15 equiv ONOO−; conditions: ss-6 20 μM, 30 min, room temperature, excitation 515 nm, FIG. 9 vs FIG. 8
Description: as §4
Subsequently, 15 equiv of ONOO^− solution with different concentration was slowly added to a 20 μM ss-6 solution with vigorous stirring at room temperature. […] The changes in fluorescence intensity were measured after 30 min. The excitation spectrum and the fluorescence spectrum of the solution after the completion of the reaction were measured using the same conditions as described above.
Compound ss-12 obtained in Example 5 was dissolved in CH3CN to a concentration of 2 mM, and then the solution was added a 100 mM sodium phosphate buffer (pH 7.4) for dissolution at a final concentration of 20 μM. The excitation spectrum and the fluorescence spectrum of the 20 μM ss-12 solution were measured using a Perkin Elmer® LS50 fluorescence spectrometer. […]

Substance: N,N-diethyl-8-[2-methoxy-(4,4,4-trifluoro-3-oxobutyl)phenyl]-4,4-difluoro-4-bora-3a,4a-diaza-s-indacene-3,5-dicarboxamide [ss-6]
- measurement of intracellular ONOO− production [1]: satisfactory results
- increase in fluorescence intensity with peroxynitrite ([2]; peroxynitrite 0, 20, 60, 100, 200, 240 and 300 μM): great increase
- relationship of fluorescence intensity with the concentration of ONOO− ([2]; peroxynitrite 0-300 μM): good linear relationship
- changes in fluorescence intensity before and after the treatment, H2O2 [3]: −5%
- changes in fluorescence intensity before and after the treatment, O2•− [4]: −1%
- selectivity for peroxynitrite over other reactive oxygen species ([5]; probe 20 μM, phosphate buffer pH 7.4, conclusion from Tables 1 and 2): very high selectivity
- changes in fluorescence intensity before and after the treatment, ONOO^− ([5]; ss-6 20 μM, 100 mM sodium phosphate buffer pH 7.4, 10 equiv ROS, excitation 515 nm): 750%
- changes in fluorescence intensity before and after the treatment, •OH [6]: 2%
- changes in fluorescence intensity before and after the treatment, SIN-1 [7]: 166%
- changes in fluorescence intensity before and after the treatment, 1O2 [8]: 3%
- change in fluorescence intensity after reaction with ONOO− [9]: Dramatic increase
